Measured values: US10344019B2 (priority 2010, dated 2019)
Like-named read-outs stand apart in the source and are kept apart here.

Tests used:
Experiment in all cases: microbe, parasite or virus in culture
Assay type in all cases: cell-based
[1] = tested on: HCV 1a RLuc cells (dicistronic genotype 1a H77 replicon, RLuc reporter); conditions: genotype 1a H77 replicon, read-out: 1a
Method: (§1) Evaluation of cell-based anti-HCV activity: Antiviral potency (EC50) was determined using a Renilla luciferase (RLuc)-based HCV replicon reporter assay. To perform the assay for genotype 1 and 2a JFH-1, HCV 1b RLuc cells (harboring a dicistronic genotype 1b Con1 replicon that encodes a RLuc reporter), or HCV 1a RLuc cells (harboring a dicistronic genotype 1a H77 replicon that encodes a RLuc reporter), or HCV 2a JFH-1 Rluc cells (harboring a dicistronic genotype 2a JFH-1 replicon that encodes a RLuc reporter) were dispensed into 384-well plates. To perform the assay for genotype 2a (with M31 present) or 2b, HCV 2a Rluc or 2b Rluc cells (both with M31 present) harboring a dicistronic NS5A chimeric genotype 2a JFH-1 replicon that encodes a RLuc reporter and either genotype 2a J6 strain NS5A gene or genotype 2b MD2b-1 NS5A gene (based on Los Alamos HCV database isolates, both with M31 present) respectively, were dispensed into 384-well plates. To perform the assay for genotype 3 and 4, HCV 3a RLuc or 4a Rluc cells harboring a dicistronic NS5A chimeric genotype 1b Con1 replicon that encodes a RLuc reporter and either a consensus genotype 3a NS5A gene or genotype 4a NS5A gene (based on Los Alamos HCV database isolates) respectively, were dispensed into 384-well plates. Compounds were re-suspended in DMSO at a concentration of 10 mM and serially diluted in DMSO either manually or using an automated pipeting instrument. Serially diluted compounds were mixed with cell culture media and added to the seeded cells. […] 72 hours later, cells were lysed and Renilla luciferase activity quantified as recommended by the manufacturer (Promega-Madison, Wis.). Non-linear regression was performed to calculate EC50 values.

[2] = tested on: HCV 1b RLuc cells (dicistronic genotype 1b Con1 replicon, RLuc reporter)
Method: as §1

[3] = tested on: HCV 2a JFH-1 Rluc cells (dicistronic genotype 2a JFH-1 replicon, RLuc reporter); conditions: genotype 2a JFH-1 replicon, read-out: 2a JFH
Method: as §1

[4] = tested on: HCV 3a RLuc cells (NS5A chimeric genotype 1b Con1 replicon with consensus genotype 3a NS5A gene)
Method: as §1

[5] = Hepatitis C virus, RLuc reporter
[6] = Hepatitis C virus, read-out: 1b (nM)
[7] = Hepatitis C virus, read-out: 3a, genotype 3a NS5A chimeric 1b Con1 replicon
[8] = read-out: 3a, genotype 3a NS5A chimeric 1b Con1 replicon
[9] = Hepatitis C virus, 72 h, Table 2, 72 hours
[10] = Hepatitis C virus, 72 h, read-out: 1b (nM)
[11] = Hepatitis C virus, 72 h, Table 1, 72 hours

SMILES	EC50 [1, 5] [nM]	EC50 [2, 6] [nM]	EC50 [3, 5] [nM]	EC50 [4, 7] [nM]	also measured
CCN(CC)C(C(=O)N1CCC[C@H]1c1ncc(-c2ccc(-c3ccc4cc(-c5cnc([C@@H]6CCCN6C(=O)[C@@H](NC(=O)OC)C(C)C)[nH]5)ccc4c3)cc2)[nH]1)c1ccccc1 (some centres unmarked) [Example 138]	0.001 to 0.999	0.006	0.001 to 0.999	0.001 to 0.99	
COC(=O)N[C@H](C(=O)N1C[C@H](C)C[C@H]1c1ncc(-c2ccc3cc(-c4ccc(-c5cnc([C@@H]6CCCN6C(=O)[C@H](NC(=O)OC)c6cccc(C)c6)[nH]5)cc4)ccc3c2)[nH]1)C(C)C [Example 184]	0.001 to 0.999	0.009	0.001 to 0.999	0.001 to 0.99	
COC(=O)N[C@H](C(=O)N1CCC[C@H]1c1nc2c([nH]1)COc1cc(-c3ccc4cc(-c5c[nH]c([C@@H]6CCCN6C(=O)[C@@H](c6ccccc6)N(C)C)n5)ccc4c3)ccc1-2)C1CCOCC1 [Example 182]	0.001 to 0.999	0.05	0.001 to 0.999	0.001 to 0.99	
COC(=O)N[C@H](C(=O)N1C[C@H](C)C[C@H]1c1ncc(-c2ccc3cc(-c4ccc(-c5cnc([C@@H]6CCCN6C(=O)[C@H](NC(=O)OC)c6ccccc6)[nH]5)cc4)ccc3c2)[nH]1)C(C)C [Example 132]	0.001 to 0.999	0.003	0.001 to 0.999	0.001 to 0.99	
COC(=O)N[C@H](C(=O)N1CCC[C@H]1c1ncc(-c2ccc3cc(C#Cc4cnc([C@@H]5CCCN5C(=O)[C@H](NC(=O)OC)c5ccccc5)[nH]4)ccc3c2)[nH]1)C(C)C [Example 115]	0.001 to 0.999	0.019	0.001 to 0.999	0.001 to 0.99	
COC(=O)N[C@H](C(=O)N1CCC[C@H]1c1ncc(-c2ccc3cc(-c4ccc(-c5cnc([C@@H]6CCCN6C(=O)[C@@H](NC(=O)OCc6ccccc6)C6CCSCC6)[nH]5)cc4)ccc3c2)[nH]1)C(C)C [Example 276]					EC50 ([1]; RLuc reporter): > 44 nM; EC50 ([3]; RLuc reporter): > 44 nM
COC(=O)N[C@H](C(=O)N1CCC[C@H]1c1ncc(-c2ccc3cc(-c4ccc(-c5cnc([C@@H]6C[C@@H](C#N)CN6C(=O)[C@H](NC(=O)OC)c6ccccc6)[nH]5)cc4)ccc3c2)[nH]1)C(C)C [Example 145]	0.001 to 0.999	0.01	0.001 to 0.999	1 to 4.99	
COC(=O)NC(C(=O)N1C[C@H](C)C[C@H]1c1ncc(-c2ccc(-c3ccc4cc(-c5cnc([C@@H]6CCCN6C(=O)[C@@H](NC(=O)OC)C6CCOCC6)[nH]5)ccc4c3)cc2)[nH]1)c1cccnc1 (some centres unmarked) [Example 214]	0.001 to 0.999	0.06	0.001 to 0.999	0.001 to 0.99	
COC(=O)N[C@H](C(=O)N1C[C@H](C#N)C[C@H]1c1ncc(-c2ccc3cc(-c4ccc(-c5cnc([C@@H]6CCCN6C(=O)[C@H](NC(=O)OC)c6ccccc6)[nH]5)cc4)ccc3c2)[nH]1)C(C)C [Example 135]	0.001 to 0.999	0.006	0.001 to 0.999	> 5	
COC(=O)N[C@H](C(=O)N1CCC[C@H]1c1ncc(-c2ccc3cc(-c4ccc(-c5cnc([C@@H]6SCCN6C(=O)[C@H](NC(=O)OC)c6ccccc6)[nH]5)cc4)ccc3c2)[nH]1)C(C)C [Example 117]	0.001 to 0.999	0.007	0.001 to 0.999	0.001 to 0.99	
COC(=O)N[C@H](C(=O)N1CCCC1c1ncc(-c2ccc3cc(-c4ccc(-c5cnc([C@@H]6CCCN6C(=O)[C@H](NC(=O)OC)c6ccccc6)[nH]5)cc4)ccc3c2)[nH]1)C1CCOCC1 (some centres unmarked) [Example 153]	0.001 to 0.999	0.012	0.001 to 0.999	0.001 to 0.99	
COC(=O)N[C@H](C(=O)N1CCC[C@H]1c1ncc(-c2ccc(-c3ccc(-c4ccc(-c5cnc([C@@H]6CCCN6C(=O)[C@H](NC(=O)OC)c6ccccc6)[nH]5)cc4)cc3)cc2)[nH]1)C(C)C [Example 193]					EC50 ([1]; RLuc reporter): 0.001 to 0.999 nM; EC50 ([2]; read-out: 1b): 0.005 nM; EC50 ([3]; RLuc reporter): 0.001 to 0.999 nM; EC50 [4, 8]: 0.001 to 0.99 nM
COC(=O)N[C@H](C(=O)N1CCC[C@H]1c1ncc(-c2ccc3cc(-c4ccc5c(c4)OCc4nc([C@@H]6CCCN6C(=O)[C@H](NC(=O)OC)c6ccccc6)[nH]c4-5)ccc3c2)[nH]1)C(C)C [Example 172]	0.001 to 0.999	0.011	0.001 to 0.999	0.001 to 0.99	
COC(=O)N[C@H](C(=O)N1CCC[C@H]1c1ncc(-c2ccc3cc(-c4ccc(-c5cnc([C@@H]6C[C@@H](F)CN6C(=O)[C@H](NC(=O)OC)c6ccccc6)[nH]5)cc4)ccc3c2)[nH]1)C(C)C [Example 140]					EC50 ([1]; RLuc reporter): 0.001 to 0.999 nM; EC50 [4, 8]: 0.001 to 0.99 nM
COC(=O)N[C@H](C(=O)N1CC(=O)C[C@H]1c1ncc(-c2ccc(-c3ccc4cc(-c5cnc([C@@H]6CCCN6C(=O)[C@@H](c6ccccc6)N(C)C)[nH]5)ccc4c3)cc2)[nH]1)C(C)C [Example 33]					EC50 [1, 9]: 0.001 to 0.999 nM; EC50 [2, 10]: 0.009 nM; EC50 [3, 9]: 0.001 to 0.999 nM; EC50 ([4]; Hepatitis C virus, read-out: 3a, Table 2, genotype 3a NS5A chimeric replicon): 0.001 to 0.99 nM
COC(=O)NC(C(=O)N1CCC[C@H]1c1ncc(-c2ccc(-c3ccc4cc(-c5cnc([C@@H]6CCCN6C(=O)[C@@H](NC(=O)OC)C(C)C)[nH]5)ccc4c3)cc2)[nH]1)c1ccccc1Cl (some centres unmarked) [Example 104]	0.001 to 0.999	0.007	0.001 to 0.999	0.001 to 0.99	
COC(=O)N[C@H](C(=O)N1CCC[C@H]1c1nc2ccc(-c3ccc(-c4ccc5c(c4)CCc4nc([C@@H]6CCCN6C(=O)[C@H](NC(=O)OC)c6ccccc6)[nH]c4-5)cc3)cc2[nH]1)C(C)C [Example 166]	1 to 44	0.018	0.001 to 0.999	0.001 to 0.99	
COC(=O)N[C@H](C(=O)N1CCC[C@H]1c1ncc(-c2ccc3cc(-c4ccc(-c5cnc([C@@H]6C[C@@H](F)CN6C(=O)[C@H](NC(=O)OC)c6ccccc6)[nH]5)cc4)ccc3c2)[nH]1)C(C)C [Example 139]	0.001 to 0.999	0.004	1 to 44	0.001 to 0.99	
CCN[C@@H](C(=O)N1CCC[C@H]1c1nc(-c2ccc(-c3ccc4cc(-c5c[nH]c([C@@H]6CCCN6C(=O)[C@@H](NC(=O)OC)C(C)C)n5)ccc4c3)cc2)c[nH]1)c1ccccc1 [Example 165]	0.001 to 0.999	0.009	0.001 to 0.999	0.001 to 0.99	
COC(=O)N[C@H](C(=O)N1CCC[C@H]1c1ncc(-c2ccc3cc(-c4ccc(-c5cnc([C@@H]6CCCN6C(=O)[C@H](NC(=O)OC)c6ccccc6F)[nH]5)cc4)ccc3c2)[nH]1)C(C)C [Example 148]	0.001 to 0.999		0.001 to 0.999		EC50 ([2]; read-out: 1b): 0.02 nM; EC50 [4, 8]: 1 to 4.99 nM
COC(=O)N[C@H](C(=O)N1CCC[C@H]1c1ncc(-c2ccc3c(c2)CCc2cc(-c4cnc([C@@H]5CCCN5C(=O)C(c5ccccc5)N(C)C)[nH]4)ccc2-3)[nH]1)C(C)C (some centres unmarked) [Example 190]				0.001 to 0.99	
COC(=O)NC(C(=O)N1C[C@H](C)C[C@H]1c1ncc(-c2ccc(-c3ccc4cc(-c5cnc([C@@H]6CCCN6C(=O)[C@@H](NC(=O)OC)C(C)C)[nH]5)ccc4c3)cc2)[nH]1)c1cnccn1 (some centres unmarked) [Example 255]	0.001 to 0.999	0.015	1 to 44		
COC(=O)NC(C(=O)N1CCC[C@@H]1c1ncc(-c2cc3c4c(c2)OCc2cc(-c5cnc([C@H]6CCCN6C(=O)[C@@H](NC(=O)OC)C(C)C)[nH]5)cc(c2-4)OC3)[nH]1)C(C)C (some centres unmarked) [Example 11]					EC50 [1, 11]: 1 to 44 nM; EC50 [2, 10]: 0.258 nM; EC50 [3, 11]: 0.001 to 0.999 nM
COC(=O)NC(C(=O)N1C[C@H](C)C[C@H]1c1ncc(-c2ccc(-c3ccc4cc(-c5cnc([C@@H]6CCCN6C(=O)[C@@H](NC(=O)OC)C6CCOCC6)[nH]5)ccc4c3)cc2)[nH]1)c1cnccn1 (some centres unmarked) [Example 254]	0.001 to 0.999	0.077	0.001 to 0.999		
COC(=O)N[C@H](C(=O)N1CCC[C@H]1c1ncc(-c2ccc3cc(-c4ccc(-c5cnc([C@@H]6CCCN6C(=O)[C@H](NC(=O)OC(C)(C)C)c6ccccc6)[nH]5)cc4)ccc3c2)[nH]1)C(C)C [Example 186]	0.001 to 0.999	0.004	0.001 to 0.999		
